Measurements from paper PMC9138683, “Decoding the Role of Melatonin Structure on Plasmodium falciparum Human Malaria Parasites Synchronization Using 2-Sulfenylindoles Derivatives” (Biomolecules, 2022).
“Also recorded” adds a separate entry of the source.

What was measured:
[1] = tested on: P. falciparum 3D7 parasites; assay: Effect of 2-sulfenylindoles in combination with 100 nM melatonin on parasitemia; type: cell-based, Plasmodium falciparum; settings: 3D7, 48 h; for Parasitemia (%), melatonin alone: 100 nM melatonin only, normalized to DMSO control (100.7%), combination experiment
Experimental: (§1) To evaluate the role of the compounds in parasitemia, 1% 3D7 parasites in 2% hematocrit were incubated for 48 h with 500 nM of the 2-sulfenylindole derivatives. Melatonin (100 nM) was used as a positive control, and DMSO (0.0013% v/v) was used as a negative control. The concentration of DMSO chosen as control was the concentration present in the tested compounds at 500 nM. The activity of the compounds was measured by SG-I and MT-Red staining. The data obtained were normalized to those of the control (DMSO). Additionally, to test the ability of the compounds to affect melatonin activity in parasitemia, 3D7 parasites were incubated with 500 nM indole compounds along with 100 nM melatonin for 48 h.
Following the assumption that compounds resembling melatonin structure might interact through the melatonin signaling pathways, we evaluated the effect of the compounds on melatonin action on parasitemia. Our next step was to study the combination of 2-sulfenylindoles with melatonin in asynchronous 3D7 by incubating parasites simultaneously with 100 nM melatonin and 500 nM of each compound.

[2] = tested on: CDPKs, PKG, and its accessory genes; assay: Real-time PCR of CDPKs, PKG and accessory genes after melatonin treatment; type: cell-based, Plasmodium falciparum
Experimental: P. falciparum trophozoites (approximately 30–34 h post invasion) were treated with 100 nM and 1 µM melatonin (SIGMA-Aldrich, Burlington, MA, USA). RNA was extracted with Trizol (Life Technologies, Carlsbad, CA, USA) 1 and 3 h post treatment. cDNA synthesis was carried out using random primers and Superscript IV reverse transcriptase (Life Technologies) according to the manufacturer’s protocol. Oligonucleotides used are listed in Supplementary Table S1. SYBR Green incorporation was measured during PCR amplification performed on the 7300 Real-Time PCR System (Applied Biosystems, Foster City, CA, USA). The statistical analysis was performed by applying Student’s t-test on the log2 values of relative expression (delta delta Ct method) of the genes (normalized with the seryl t-RNA synthase housekeeping gene).
Previous studies have shown that melatonin alters the expression of the ubiquitin/proteasome system, mitochondrial FIS1, DYN2 [27], and nuclear PfMORC [28]. These findings lead us to investigate the effect of melatonin on kinases, phosphodiesterase, and cyclase for two reasons; first, kinases and their components are required for rupturing the parasites to facilitate egress in both asexual and sexual stages. […] We treated the late-stage trophozoite with two different melatonin concentrations (100 nM and 1 µM) for two time points (1 and 3 h). […] It is possible that melatonin may act upstream of PKG and modulates cytosolic calcium, but this hypothesis requires more experimental validation.
Figure 6 Differential transcription of CDPKs, PKG, and its accessory genes from parasites treated with melatonin for 1 and 3 h. Sorbitol synchronized parasites were treated with melatonin, and RNA samples were extracted, purified, and transcript level was investigated by RT-qPCR. Expression of genes has been normalized by housekeeping seryl-tRNA Synthetase expression for (A) 100 nM melatonin for 1 h; (B) 100 nM melatonin for 3 h; (C) 1 μM melatonin for 1 h; and (D) 1 μM melatonin for 3 h. […]

[3] = tested on: P. falciparum 3D7 parasites; assay: Effects of indole derivatives (500 nM) on parasitemia; type: cell-based, Plasmodium falciparum; settings: for Parasitemia (%), melatonin alone: normalized to DMSO control (100.6%), compound-alone experiment
Experimental: as §1
After incubation, the final parasitemia was determined using flow cytometry.

P. falciparum 3D7 strain = assay: Blood-stage development evaluation by microscopy; type: cell-based, Plasmodium falciparum
Experimental: Ring-stage parasites (10–14 h) at 1% parasitemia in 2% hematocrit were treated with compound 20 and compound 28 at concentrations of 1 and 30 µM in 24-well plates for 48 h. Treatment with chloroquine (20 nM) and DMSO (0.1%) was used as positive and negative controls. Smears were rapid stained (Panotico) every 12 h after treatment (12, 24, 36, 48, and 60 h time points), and we took images of parasites to assess the blood-stage development (Zeiss, Oberkochen, Germany).
During monitoring, parasites continued to develop throughout the cycle in the presence of both compounds. […] To examine its stage specificity, we monitored development every 12 h.
Figure 5 Parasitemia reduction with compound 20 (A) and compound 28 (B) to determine the stage activity. Data are means ± SD. Ring-stage synchronized parasites with sorbitol 5% were treated with chloroquine (20 nM), compound 20 (30 µM), and compound 28 (30 µM). The chosen treatment concentration was the IC50 values obtained for these compounds against the 3D7 parasites. (C) After drug administration, smears of P. falciparum 3D7 strain were taken at 0, 12, 24, 36, 48, and 60 h after drug administration, observing the growth development of treated parasites. * p ≤ 0.05, ** p ≤ 0.01, *** p ≤ 0.001.

Cytotoxicity assay (MTT) = type: cell-based, human; settings: human, HEK293T (HEK293) cells, 0.10-100 µM, read-out: CC50 ± SD HEK293
Experimental: (§2) HEK293T (human embryonic kidney) cells were cultured in 75 cm^2 vented tissue culture flasks (Greiner Bio-One, Frickenhausen, Germany) at 37 °C in a humidified atmosphere containing 5% CO2 in Dulbecco’s modified […] (Gibco) supplemented with 10% (v/v) fetal bovine serum (Gibco), 100 U/mL penicillin, and 100 μg/mL streptomycin (Sigma). Cytotoxicity was evaluated with the 4,5-dimethylthiazol-2-yl-2,5-diphenyltetrazolium bromide (MTT) cell proliferation assay. Briefly, 10^4 cells/well were seeded in flat-bottom 96-well plates in complete DMEM medium for 24 h, followed by incubation with different concentrations of each compound (0.10–100 µM) for 72 h. DMSO (0.13%) and digitonin were used as the negative and positive controls, respectively. The concentrations of DMSO chosen as control were the concentration present in the tested compounds (from 0.0001% to 0.12%, two-fold dilution). After 72 h, cells were then incubated with the MTT reagent for 3 h, and absorbance was measured at 570 nm using a FlexStation® 3 Multi-Mode Microplate Reader (Molecular Devices, Sunnyvale, CA, USA). Moreover, we calculated the selectivity indexes (SI) to understand whether the compounds were more toxic to parasites than cells, or vice versa, according to the ratio of the CC50 value to the IC50 value for each compound.
(§3) We further assessed the toxicity of 2-sulfenylindole compounds against HEK293 cells using the MTT assay with different concentrations of the compounds for 72 h. Table 1 presents all the toxicity data and summarizes the IC50 values of the compounds evaluated in this study for Dd2 and 3D7 strains.

HEK293 cell line = assay: Cytotoxicity assay (MTT); type: cell-based, human; settings: 72 h
Experimental: as §2, §3

[4] = tested on: Plasmodium falciparum 3D7 (chloroquine-sensitive); assay: In vitro drug susceptibility assay, 3D7 strain (flow cytometry, SYBR Green I / MitoTracker Deep Red); type: cell-based; settings: Plasmodium falciparum, 3D7, 72 h, asynchronous parasites, 72 h, 0.1-100 µM; read-out: IC50 ± SD Pf3D7
Experimental: The cultures were maintained under an atmosphere of 5% CO2, 5% O2, and 90% N2. Fresh complete medium was provided daily, and rapid-stained (Panotico) blood smears were examined.
To evaluate the effects of synthetic compounds on the intraerythrocytic development of P. falciparum, we analyzed parasitemia by flow cytometry with 0.3% initial parasitemia and 1% hematocrit in the assay. Plates were incubated with the compounds at concentrations ranging from 0.10 to 100 µM for 72 h. Dual staining with SYBR Green I (SG-I) (Invitrogen, Waltham, MA, USA) and MitoTracker Deep Red (MT-Red) (Invitrogen) were used to label nucleic acids and mitochondria, respectively. Approximately 10,000 cells were counted by an Accuri C6 (Becton Dickinson, San Jose, CA, USA) and analyzed by FlowJo 5 software. Parasitemia was determined from the analysis of dot plots (side scatter versus fluorescence).
We determined the susceptibility of P. falciparum to the indole compounds and investigated whether CQR parasites responded differently to the compounds. […] We determined the IC50 values for each compound by analyzing viable and non-viable parasites after compound treatment, represented in dot plots (Figure 1H).

Row | IC50 [4] | Structure (SMILES) | Parasitemia (%), melatonin alone [1] | Parasitemia (%), melatonin alone ([1]; listed as melatonin) | change in gene expression ([2]; 100 nM melatonin for 1 h, late-stage trophozoite, CDPK1 and GCα) | change in gene expression ([2]; 100 nM melatonin, after 3 h, additional CDPK6, CDPK7, PKG, PDEα, and GCβ) | change in gene expression ([2]; 1 µM melatonin for 3 h, cGMP-dependent signaling component) | rise in parasitemia ([3]; 100 nM melatonin, 3D7, 48 h, from 100.6% (control)) | Parasitemia (%), melatonin alone ([3]; 100 nM melatonin, 3D7, 48 h) | Parasitemia (%), melatonin alone ([3]; 100 nM melatonin, 3D7, 48 h, listed as melatonin) | Parasitemia (%) Treatment with compound (500nM) + Melatonin (100nM) ([1]; normalized to DMSO control) | effect on parasitemia during blood-stage progression (P. falciparum 3D7 strain; 3D7, ring-stage synchronized, 30 µM (IC50), Figure 5A,B) | stage-specific effect on blood-stage development (P. falciparum 3D7 strain; ring-stage synchronized 3D7, treated at IC50 (30 µM for 20 and 28), monitored every 12 h) | CC50 at 72 h (Cytotoxicity assay (MTT)) | cytotoxic effect against HEK293 cells (in words) (HEK293 cell line) | effect on parasitemia (in words) ([3]; 500 nM compound alone, 3D7 asynchronous, 48 h) | increase in parasitemia ([3]; 500 nM compound, 3D7, 48 h, compared to DMSO control (100.6%)) | activity at 0.5 µM ([3]; Plasmodium falciparum, 3D7, 48 h, normalized to DMSO control, read-out: Parasitemia (%) Treatment with compound (500nM))
1 |  | COc1ccc2[nH]cc(CCNC(C)=O)c2c1 [Melatonin] | 113.5 ± 2.75% | 113.5% | very minor effect | increased expression | most prominent effect | 6.9% | 107.5 ± 4.32% | 107.5% |  |  |  |  |  |  |  | 
2 | 28.8 ± 4.86 µM | COC(=O)Cc1c(SCCCCCCCCCCC(=O)O)[nH]c2ccccc12 [Compound 20] |  |  |  |  |  |  |  |  | 122.3 ± 3.71% | significantly affect parasitemia | affects RBC reinvasion | > 100 µM | low cytotoxic effect | led to an increase in parasitemia; also recorded: significantly increase the parasitemia | 9.1% | 110 ± 4.07%
